From PubChem BioAssay AID179 (DTP/NCI, 2004)
“And” between values parts separate entries of the source, which are not always exact repeats. Identical values can stand only once. The source made the active and inactive calls.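 How the source made its calls: active means compounds giving half or more protection of infected cells from virus-caused growth loss, again on retest; inactive means the rest.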

Test system: CEM cells HIV-1 protection, formazan growth assay
Assay: NCI AIDS Antiviral Assay
Details: for IC50: measured here: growth of uninfected CEM cells
Summary of the method: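 CEM (human) cells, HIV-1 infected vs uninfected, 5-point dosing, formazan growth read-out. Retest threshold 50% protection.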

| Compound | EC50 [µM] | IC50 | outcome |
| --- | --- | --- | --- |
| OCC1OC(n2nc(-c3ccccc3)nc2-c2cnccn2)C(O)C1O (stereo not drawn) | > 200 | > 200 µM |  |
| Cn1c(=O)nc2n(-c3ccc(Br)cc3)c3ccccc3nc-2c1=O |  |  | inactive |
| c1ccc([P+](Cc2nc3ccccc3[nH]2)(c2ccccc2)c2ccccc2)cc1 | > 200 | 38.9 µM and 46.8 µM |  |
| CC1(Cl)C(=O)NN=C1c1ccc([N+](=O)[O-])cc1 (stereo not drawn) | > 200 | 17.8 µM |  |
| ClC(Cl)(Cl)C1CCOC1n1nc2ccccc2n1 (stereo not drawn) | > 200 | > 200 µM |  |
| NC(=O)CNC(=O)c1ccccc1SC(=O)OCCCCCl | 26.3 | > 200 µM |  |
| CC(=O)NS(=O)(=O)c1ccc(-n2sc3ccccc3c2=O)cc1 | 12.3 | 30.9 µM |  |
| CNc1ccc(/C=C2\C=Cc3ccccc32)cc1 | > 200 | > 200 µM |  |
| O=[N+]([O-])c1cccc2nc3ccccc3c(NCCc3cccc[n+]3[O-])c12 | > 200 | 0.0631 µM |  |
| CN1CCN(c2c(C(=O)Nc3ccc([N+](=O)[O-])cc3)cc([N+](=O)[O-])cc2[N+](=O)[O-])CC1 | > 200 | > 100 µM |  |
| OCCN(CCO)c1cccc(N(CCO)CCO)n1 |  |  | inactive |
| O=S(=O)(O)c1ccc2cc(N=Nc3cc(S(=O)(=O)O)c4cccnc4c3O)ccc2c1 | 24 | > 100 µM |  |
| O=C(O)CCCCC[n+]1ccccc1 | > 200 | > 200 µM |  |
| O=C(c1ccc(Cl)cc1)N(C(=S)N1CCN(c2ccccc2)CC1)C1CCCCC1 | > 6.17 | > 6.17 µM |  |
| O=c1cc(N2CCCC2)[nH]c(=O)n1-c1ccccc1 | > 200 | > 200 µM |  |
| Cc1ccc(S(=O)(=O)Nn2c(O)c(C#N)c(-c3ccccc3)c(C#N)c2=O)cc1 | > 200 | > 200 µM |  |
| NCCCNCCCCNC(=O)C(O)NC(=O)CCCCCCN=C(N)N (stereo not drawn) | 288 | 501 µM |  |
| CS(=O)(=O)C(C#N)c1nc2ccccc2nc1Cl (stereo not drawn) | > 200 | > 200 µM |  |
| Cc1c(C(=O)N(CCO)CCO)[n+](=O)c2ccccc2n1[O-] | > 575 | > 575 µM |  |
| CC1=NNC(=O)C1C1CC(c2c[nH]c3ccccc23)=NN(c2ccccc2)C1=O (stereo not drawn) | > 200 | 33.9 µM |  |
| N#CC(Nc1cccc(C(F)(F)F)c1)c1ccccc1C(F)(F)F (stereo not drawn) | > 39.8 | > 39.8 µM |  |
| CC1=NN(c2nc(N)nc(NS(=O)(=O)c3cc(C)c(Cl)cc3S)n2)C(C)(C)C1 | 105 | 479 µM |  |

| Compound | EC50 [µM] | IC50 | outcome |
| --- | --- | --- | --- |
| ClCCCCOC1CCCCO1 (stereo not drawn) |  |  | inactive |
| C#CC(O)/C=C/C(O)CCCC(O)CC#CC(O)C#CCCCCC(O)/C=C/CCCC(O)/C=C/CCCCCCCCCCCCCC(O)C(O)C#CC(=O)O (stereo not drawn) | > 50.1 | 28.8 µM |  |
| CC(C)=NNc1cnnc2ccc([N+](=O)[O-])cc12 | > 200 | 70.8 µM |  |
| C1=Nc2ccc(cc2)-c2ccc(cc2)N=Cc2ccc(cc2)OCc2cccc(n2)COc2ccc1cc2 | > 100 | > 100 µM |  |
| COC(=O)CCC(NC(=O)OC(C)(C)C)C(=O)NC(Cc1ccc(NC(=O)CCCC(C)=O)cc1)C(=O)NC(CCC(=O)OC)C(=O)OC (stereo not drawn) | > 100 | > 100 µM |  |
| Cc1cc2c(=O)cc(-c3ccc(Cl)cc3)oc2c(C(=O)O)c1C |  |  | inactive |
| OCCNNCCO | > 200 | > 200 µM |  |
| O=C1Nc2ccccc2/C1=N/N1CCCCCC1 | > 200 | 97.7 µM |  |
| C[C@]12CC[C@@H]3c4ccc(OC(=O)N(CCCl)CCCl)cc4CC[C@H]3[C@@H]1CC[C@@H]2O | > 200 | 1.7 µM |  |
| COC(=O)C(Cc1ccc(N(C)C)cc1)(NC(=O)c1ccccc1)P(=O)(OC)OC (stereo not drawn) | > 417 | 398 µM |  |
| CC(=O)Nc1ccc(C(=O)NN2C(=O)CSC2c2ccc(O)cc2)cc1 (stereo not drawn) | > 36.3 | > 36.3 µM |  |
| COc1ccc(C(c2ccc(OC)cc2)N2C(=O)CCC2C(=O)O)cc1 (stereo not drawn) | > 200 | > 200 µM |  |
| CCOC(=O)c1cc(Cl)cc2c(=O)c3c(O)c4[nH]c5c(C(=O)OCC)cc(Cl)cc5c(=O)c4c(O)c3[nH]c12 | > 100 | 4.9 µM |  |
| Oc1ccc2c(c1)-c1c(c3cc(O)ccc3n1CCN1CCOCC1)CC2 |  |  | inactive |
| C=C1CN(S(=O)(=O)c2ccc([N+](=O)[O-])cc2)CC(=C)CN(S(=O)(=O)c2ccc([N+](=O)[O-])cc2)CC(=C)CN(S(=O)(=O)c2ccc([N+](=O)[O-])cc2)C1 | > 100 | > 100 µM |  |
| O=C1C(/C=C/c2ccc(Cl)cc2)=NNC2N1N=C1NC(=O)C3(NN12)c1ccccc1-c1ccccc13 (stereo not drawn) | > 200 | 132 µM |  |
| O=C1OC(CN2CCOCC2)CN1/N=C/c1ccc([N+](=O)[O-])o1 (stereo not drawn) | > 200 | 41.7 µM |  |
| O=c1cc(O)cc2n1CCC2 | > 1660 | > 1660 µM |  |
| NCCSSC/C=C\CSSCCN |  |  | inactive |
| CC(=O)c1c(-c2ccc(Cl)cc2)c(C#N)c(=S)n(C2OC(CO)C(O)C(O)C2O)c1C (stereo not drawn) | > 200 | 44.7 µM |  |
| COc1ccc(/C=C/c2nc(=S)[nH][nH]2)cc1OC | > 135 | 110 µM |  |
| O=C(C1OC1c1ccc(Br)cc1O)C12CC3CC(CC(C3)C1)C2 (stereo not drawn) | > 200 | 110 µM |  |

| Compound | EC50 [µM] | IC50 | outcome |
| --- | --- | --- | --- |
| C1=NCCNc2nc3ccccc3cc2C=NCCNc2nc3ccccc3cc21 | > 200 | > 200 µM |  |
| CCN(CC)C(=O)CC12CCCCC1=Nc1ccccc12 (stereo not drawn) | > 871 | 550 µM |  |
| CC(=O)C=O |  |  | inactive |
| COc1ccc2c(c1)CCC1C3(CCCC21C)OCCO3 (stereo not drawn) | > 100 | 20.4 µM |  |
| O=C1C=CC2(CCCCCCC2=O)CC1 (stereo not drawn) |  |  | inactive |
| Cc1c(O)c2cccc(-c3ccccc3)c2oc1=O | > 200 | 132 µM |  |
| C=C1C(=O)O[C@H]2C[C@@]3(COC(C)=O)C=COC=C(COC(=O)C(C)C)C3CC12 (stereo partly drawn) | > 200 | 30.9 µM |  |
| O=C(CC(=O)N1N=C(N2CCCCC2)CC1c1ccccc1)Nc1ccccc1 (stereo not drawn) | > 200 | > 200 µM |  |
| CCS[C@@H]([C@@H](COC(C)=O)OC(C)=O)[S@](=O)CC | > 200 | 26.3 µM |  |
| COc1cc2c(c(OC)c1OC)C(=O)CC2N (stereo not drawn) | > 200 | > 200 µM |  |
| NC1N=C(c2ccc(Cl)cc2)C2=C(N1)c1ccccc1CC2 (stereo not drawn) | > 200 | 6.76 µM |  |
| C[n+]1c2ccccc2c(NCC(=O)O)c2ccccc21 |  |  | inactive |
| O=C1CNc2cc(N3CCN(c4cccc(C(F)(F)F)c4)CC3)ccc2N1 | > 200 | 75.9 µM |  |
| COc1ccc(S(=O)(=O)O)cc1C(=O)c1cc(S(=O)(=O)O)ccc1OC | > 575 | > 575 µM |  |
| CN1C2CC(=O)CC1[C@@H]1OC(c3ccccc3)O[C@H]21 (stereo partly drawn) | > 200 | > 200 µM |  |
| CC(=O)O/N=C/c1cc2c(cc1Br)OCO2 | > 18.2 | > 18.2 µM |  |
| Oc1ccc2c(c1)OCC1c3ccccc3OC21 (stereo not drawn) |  |  | inactive |
| CC(=O)C12C[C@](C#N)(N3CCCCCC3)C1C=Cc1ccccc12 (stereo partly drawn) | > 200 | > 200 µM |  |
| O=C(O)CN1C(=O)CN=C(c2ccccn2)c2cc(Cl)ccc21 | > 759 | > 759 µM |  |
| S=P(Oc1cc(Cl)c(Cl)cc1Cl)(N1CCN(c2cccc(Cl)c2)CC1)N1CCN(c2cccc(Cl)c2)CC1 | > 11.2 | > 11.2 µM |  |
| CCOC(=O)/C(C#N)=C/c1ccc(Br)cc1 | > 93.3 | > 93.3 µM |  |
| COc1cc(N=Nc2ccc(C(=O)N(C)C)cc2)c(C)cc1N=Nc1c(O)c2ccccc2[nH]c1=O | > 200 | > 200 µM |  |

| Compound | EC50 [µM] | IC50 | outcome |
| --- | --- | --- | --- |
| COc1ccccc1N1C(=O)CSC1=Nc1ccccc1 | > 112 | > 112 µM |  |
| COc1cc2c3c(c1OC)C(=O)C=C3N(S(=O)(=O)c1ccc(C)cc1)CC2 |  |  | inactive |
| O=[N+]([O-])c1ccc(-n2nc3ccc4c(no[n+]4[O-])c3n2)cc1 | > 200 | 57.5 µM |  |
| Cc1nc(C)c(N2CCNCC2)c(=O)[nH]1 |  |  | inactive |
| CC1c2c(n(C)c3ccccc23)C2CCC3(CO3)C1N2Cc1ccccc1 (stereo not drawn) |  |  | inactive |
| O=C(N=c1nc2ccccn2s1)c1ccccc1 | > 53.7 | > 53.7 µM |  |
| COc1c(Cl)cc(C(=CCN[C@H]2CC[C@@]3(C)[C@@H](CC[C@@H]4[C@@H]3CC[C@]3(C)[C@@H]([C@H](C)CCCC(C)C)CC[C@@H]43)C2)c2cc(Cl)c(OC)c(C(=O)O)c2)cc1C(=O)O | > 50.1 | > 50.1 µM |  |
| Cc1cc2c(c(C(N)=O)c1C)-c1cccc(F)c1C2=O |  |  | inactive |
| CC(C)(C)C1CCP(=O)(c2ccccc2)CC1 (stereo not drawn) | 0.0631 | > 200 µM |  |
| C[n+]1ccc(-c2nc(-c3cc[n+](C)cc3)nc(-c3cc[n+](C)cc3)n2)cc1 | > 200 | 77.6 µM |  |
| CCC[CH2][Sn]([CH2]CCC)([O]C(=O)Cc1ccc(F)cc1)[O]C(=O)Cc1ccc(F)cc1 | > 25.1 | 4.79 µM |  |
| C/C=C/CC(C)C(O)C1C(=O)NC(CC)C(=O)N(C)CC(=O)N(C)C(CC(C)C)C(=O)NC(C(C)C)C(=O)N(C)C(CC(C)C)C(=O)NC(C)C(=O)NC(C)C(=O)N(C)C(CC(C)C)C(=O)N(C)C(CC(C)C)C(=O)N(C)C(C(C)C)C(=O)N1C (stereo not drawn) | 3.39 | 8.13 µM |  |
| COc1cc(C)cc2c(-c3c(OC(C)=O)cc(OC(C)=O)c4c3C[C@H](C)N(C(C)=O)[C@H]4C)cc(-c3cc(-c4c(OC(C)=O)cc(OC(C)=O)c5c4C[C@H](C)N(C(C)=O)[C@H]5C)c4cc(C)cc(OC)c4c3O)c(O)c12 | > 200 | 40.7 µM |  |
| O=C1C(Br)=C(c2ccccc2)C(c2ccccc2)=C1c1ccccc1 |  |  | inactive |
| CCN1Cc2c(/C=C/c3ccccc3)nc3ccc(OC)cc3c2N(c2cccc(Cl)c2)C1 | > 41.7 | 7.76 µM |  |
| CC(C)c1ncc([N+](=O)[O-])n1C | > 200 | > 200 µM |  |
| O=C1CCCCN1 |  |  | inactive |
| O=c1sccc2ccccc12 | > 417 | > 417 µM |  |
| CC(=O)n1nc(C)c(-c2onc3ccc(Cl)cc23)c1C | 40.7 | 44.7 µM |  |
| COP(=N[Si](C)(C)C)(OC)OC | > 200 | > 200 µM |  |
| CC1C2(C)OC(=N)C(C#N)(C(C)O2)C1(C#N)C#N (stereo not drawn) | > 200 | 9.77 µM |  |
